Measured values published in the NIST ThermoML archive (doi:10.1016/j.jct.2005.08.009).

Experiment: xn = mol fraction of the nth substance listed
Details: 101 kPa, Liquid

CC#N [acetonitrile] + O
Details	mass density, 298.15 K [kg/m3]	mass density, 303.15 K [kg/m3]	mass density, 308.15 K [kg/m3]	mass density, 313.15 K [kg/m3]	mass density, 318.15 K [kg/m3]	viscosity, 298.15 K [mPa·s]	viscosity, 303.15 K [mPa·s]	viscosity, 308.15 K [mPa·s]	viscosity, 313.15 K [mPa·s]	viscosity, 318.15 K [mPa·s]
x1 = 0.051	978.98	975.65	972.14	969.11	965.89	0.9849	0.8799	0.7964	0.7208	0.6522
x1 = 0.1169	954.73	951.24	947.08	943.32	939.05	0.9567	0.8628	0.7842	0.7155	0.6524
x1 = 0.1971	924.74	921.1	916.51	912.69	908.03	0.8743	0.7931	0.7218	0.6628	0.6069
x1 = 0.2728	900.14	896.29	891.33	887.31	882.39	0.7891	0.7152	0.6502	0.5951	0.5462
x1 = 0.3601	876.35	872.19	866.86	862.67	857.41	0.6953	0.6298	0.5737	0.5266	0.4853
x1 = 0.4417	857.17	852.79	846.98	842.61	837.06	0.6061	0.5574	0.5121	0.4744	0.4435
x1 = 0.5204	841.27	836.65	830.76	826.18	820.41	0.5387	0.4972	0.4606	0.4317	0.4089
x1 = 0.6012	826.9	822.15	816.07	811.38	805.44	0.4802	0.4473	0.4189	0.3959	0.3783
x1 = 0.6671	816.3	811.49	805.22	800.45	794.36	0.4415	0.4138	0.3902	0.3698	0.3556
x1 = 0.7398	805.64	800.78	794.39	789.71	783.69	0.4064	0.3831	0.3633	0.3471	0.3353
x1 = 0.8253	794.81	789.89	783.52	778.81	772.68	0.3722	0.3545	0.3386	0.3256	0.3159
x1 = 0.886	787.78	782.84	776.44	771.75	765.67	0.3561	0.3405	0.3259	0.3142	0.3039
x1 = 0.9389	782.44	777.52	771.07	766.36	760.29	0.3478	0.333	0.3173	0.3061	0.2963
x1 = 0.999	–	–	–	–	–	0.3418	0.3281	0.313	0.301	0.29
x1 = 1	776.69	771.89	765.46	760.86	754.76	0.3417	0.328	0.3129	0.3009	0.2899
